Assay results reported in paper PMC10063614, “Turning universal O into rare Bombay type blood” (Nature Communications, 2023).

Target: T1, FucOB (Amuc_1120), α-1,2-L-Fucosidase O to Bombay (Akkermansia muciniphila, UniProt B2UR61)
T1 construct: signal peptide (residues 1-23) removed, additional N-terminal 17-residue peptide with His tag; pET29a, E. coli BL21(DE3); monomer in crystal
Experiment: released fucose by L-fucose dehydrogenase/NADPH assay
Type: biochemical
Details: 20 mM Tris-HCl pH 6.8, 37 °C, 30 min; enzyme:substrate 1:100,000

T1 sequence (B2UR61 entry or part of it): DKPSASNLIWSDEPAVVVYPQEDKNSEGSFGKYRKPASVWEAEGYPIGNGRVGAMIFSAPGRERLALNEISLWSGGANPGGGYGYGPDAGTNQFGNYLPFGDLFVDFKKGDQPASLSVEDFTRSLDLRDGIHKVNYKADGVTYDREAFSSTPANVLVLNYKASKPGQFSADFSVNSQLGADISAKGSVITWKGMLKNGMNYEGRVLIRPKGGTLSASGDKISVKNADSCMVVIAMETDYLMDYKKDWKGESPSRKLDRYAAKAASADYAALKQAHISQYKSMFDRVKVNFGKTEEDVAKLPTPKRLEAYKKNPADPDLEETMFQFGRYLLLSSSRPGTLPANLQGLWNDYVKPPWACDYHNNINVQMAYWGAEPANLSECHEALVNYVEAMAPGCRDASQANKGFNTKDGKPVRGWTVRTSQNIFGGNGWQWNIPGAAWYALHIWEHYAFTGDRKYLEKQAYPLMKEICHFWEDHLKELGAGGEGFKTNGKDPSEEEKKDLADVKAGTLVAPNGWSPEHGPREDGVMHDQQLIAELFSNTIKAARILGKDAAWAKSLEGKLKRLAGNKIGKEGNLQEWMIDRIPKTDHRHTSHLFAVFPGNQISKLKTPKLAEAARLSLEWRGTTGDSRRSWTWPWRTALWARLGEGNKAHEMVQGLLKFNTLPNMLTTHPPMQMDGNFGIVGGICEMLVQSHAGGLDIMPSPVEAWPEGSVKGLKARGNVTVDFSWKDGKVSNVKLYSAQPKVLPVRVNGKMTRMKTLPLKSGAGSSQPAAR

Compound	released fucose by L-fucose dehydrogenase/NADPH assay
CC(=O)N[C@H]1C(O)O[C@H](CO)[C@@H](O[C@@H]2O[C@H](CO)[C@H](O)[C@H](O)[C@H]2O[C@@H]2O[C@@H](C)[C@@H](O)[C@@H](O)[C@@H]2O)[C@@H]1O (some centres unmarked) [blood group H antigen triaose type II]	FucOB hydrolyzes all three types of H antigen structures to obtain the afucosylated Bombay phenotype
C[C@@H]1O[C@@H](O[C@H]2[C@H](O[C@H]3[C@H](O)[C@@H](O)C(O)O[C@@H]3CO)O[C@H](CO)[C@H](O)[C@@H]2O)[C@@H](O)[C@H](O)[C@@H]1O (some centres unmarked) [2’-fucosyllactose]	FucOB hydrolyzes all three types of H antigen structures to obtain the afucosylated Bombay phenotype
